Assays:
[1] = test system: tamoxifen-resistant MCF-7 cells; assay: Proliferation of tamoxifen-resistant MCF-7 cells; format: cell-based, human; conditions: 0, 5, 10 μM; in the presence of E2 and tamoxifen; 24 hours
Method: FIG. 14 is a diagram illustrating the suppression effect of the ERAP1-peptide on tamoxifen-resistant MCF-7 cells. […] The tamoxifen-resistant MCF-7 cells were treated with the ERAP1-peptide in each concentration (0, 5 and 10 μM). Then, immediately, the cells were stimulated with 10 nM E2 for 24 hours.
As the tamoxifen-resistant MCF-7 cell lines, those provided from Dr. Satoshi Inoue (Saitama Medical University Research Center for Genomic Medicine) under Material transfer agreement were offered for the experiment described below. The culture of tamoxifen-resistant MCF-7 cell was performed under the conditions recommended by the depositor. The tamoxifen-resistant MCF-7 cells were cultured in DMEM (Invitrogen, Carlsbad, Calif., USA) reinforced with 10% FBS (Nichirei Biosciences, Tokyo, Japan), 1% penicillin/streptomycin (Nacalai tesque, Kyoto, Japan), 1 μM tamoxifen (Sigma, St. Louis. Mo., USA).
Cell proliferation assay was evaluated using Cell-Counting Kit-8 (CCK-8, manufactured by Dojindo Company). First, tamoxifen-resistant MCF-7 cells were seeded in 2×10^4/well on a 48-well plate in DMEM/F12 culture medium containing phenol red and stood in a CO2 incubator for 24 hours. […] Then, 100 μl was moved to a 96-well plate from each well, and the absorbance at 450 nm was measured with a microplate reader.

MCF-7 cells = assay: E2-independent cell proliferation, MCF-7; format: cell-based, human; conditions: 1, 3, 5 and 10 μM, 24 hours
Method: FIG. 15 is a diagram illustrating the effects of the ERAP1-peptide on E2-independent cell functions. […] MCF-7 cells were treated with the ERAP1-peptide in each concentration (1, 3, 5 and 10 μM) or 10 nM tamoxifen as a positive control for 24 hours. […] MCF-7 cells were stimulated with 10 μM ERAP1-peptide treatment only, 10 nM E2 treatment only, or 10 μM ERAP1-peptide treatment and immediately 10 nM E2 for 24 hours, and the cytoplasm fraction was isolated from each of the treated cells. Then, the cytoplasm fraction was immunoprecipitated with anti-ERα antibody. Furthermore, with respect to the obtained sample, Western blotting analysis was performed using the antibodies shown in the figure.
MCF-7 cells or ZR-75-1 cells were seeded in 2×10^4/well, and KPL-3C cells were seeded in 1×10^4/well on a 48-well plate, and stood in a CO2 incubator for 24 hours. Then, for MCF-7 cells, the culture medium was exchanged with DMEM/F12 culture medium containing 10% FBS (Nichirei Biosciences, Tokyo, Japan), 1% antibiotic/antimycotic solution (Invitrogen), 0.1 mM NEAA48 (invitrogen), 1 mM sodium pyruvate and 10 μg/ml insulin (Sigma, St. Louis, Mo., USA) and not containing phenol red, and the cells were further pre-cultured for 24 hours. […] Then, 100 μl from each well was moved to a 96-well plate, and the absorbance at 450 nm was measured with a microplate reader.

[2] = Stability of ERAP1-peptide in MCF-7 cells, immunoblotting; format: in vitro ADME, human
Method: FIG. 37 is a diagram illustrating the results of evaluations for the stability of the ERAP1-peptide and the influence of the ERAP1-peptide on cellular E2. […] MCF-7 cells were treated with 10 μM HA-tagged ERAP1-peptide. Then, immediately, the cells were temporally stimulated with 10 nM E2. The data are standardized with β-actin, and show the ratio when the value at 1 hour (n=1, 3) or at 3 hours (n=2) is designated as 100. […] MCF-7 cells were treated with 10 μM ERAP1-peptide. Then, immediately, the cells were temporally stimulated with 10 nM E2. The cell lysate was centrifuged, and then the supernatant and a precipitate lysed with methanol were mixed (final concentration of methanol: 10%), and the cellular E2 concentration was measured with a commercially available kit (17β-estradiol ELISA kit, Wako Pure Chemical Industries, Ltd.).

## CSCC[C@H](NC(=O)[C@H](CCC(N)=O)NC(=O)[C@H](CCCNC(=N)N)NC(=O)[C@H](CCCNC(=N)N)NC(=O)[C@H](CCCNC(=N)N)NC(=O)[C@H](CCCNC(=N)N)NC(=O)[C@H](CCCNC(=N)N)NC(=O)[C@H](CCCNC(=N)N)NC(=O)[C@H](CCCNC(=N)N)NC(=O)[C@H](CCCNC(=N)N)NC(=O)[C@H](CCCNC(=N)N)NC(=O)[C@H](CCCNC(=N)N)NC(=O)[C@@H](N)CCCNC(=N)N)C(=O)N[C@@H](CC(C)C)C(=O)N[C@@H](CO)C(=O)N[C@@H](CC(=O)O)C(=O)N[C@@H](CC(C)C)C(=O)N[C@H](C(=O)N[C@@H](CC(C)C)C(=O)N[C@@H](CCC(N)=O)C(=O)N[C@@H](CC(C)C)C(=O)N[C@@H](CCCNC(=N)N)C(=O)N[C@@H](CCC(N)=O)C(=O)N[C@@H](CCCNC(=N)N)C(=O)O)[C@@H](C)O [ERAP1-peptide]
[1]
  cell proliferation of Tam-R MCF-7: remarkably suppressed the cell proliferation in dose-dependent manner
MCF-7 cells
  cell proliferation in the absence of E2: dose-dependent cell proliferation suppression effect
[2]; 24 hours after the administration, on average
  residual percentage of the ERAP1-peptide: 84%
[2]; after 30 hours
  residual percentage of the ERAP1-peptide: 56%
[2]; after 36 hours
  residual percentage of the ERAP1-peptide: 58%
[2]; after 48 hours
  residual percentage of the ERAP1-peptide: 54%
[2]; human, in MCF-7 cells
  half-life: ~30 h

Source: patent US9725490B2, “ERAP1-derived peptide and use thereof” (TOKUSHIMA UNIVERSITY, priority 2011, dated 2017)
